A melting point compilation (Tetko et al.; mined from patent text by program, amines drawn as free bases though some values may be those of a salt)

SMILES	melting point [°C]
Fc1ccc(-c2[nH]nc(-c3ccccc3)c2-c2ccncc2)cc1	265 to 267
CCC(CC)Nc1c(NCc2ccc(OC)c(OC)c2)c(=O)c1=O	223 to 224
CCCC[C@]1(CC)CS(=O)(=O)c2cc(O)c(O)cc2[C@@H](c2ccccc2)N1	117 to 118
CCC(C)CNN(NCC(C)CC)C(=O)c1cc(NC(=O)CCl)cc(C(N)=O)c1 (stereo not drawn)	160 to 162
CS(=O)(=O)OC(c1ccc(C(OS(C)(=O)=O)(C(F)(F)F)C(F)(F)F)cc1)(C(F)(F)F)C(F)(F)F	151
O=C(O)Cn1cc(C(=O)O)c(=O)c2cc(O)ccc(=O)c21	> 250
CCOC(=O)c1[nH]c(C)c(-c2ccc(F)cc2)c1C	174 to 175
CC(Br)C(=O)NC(C)(C)c1ccccc1 (stereo not drawn)	102 to 103
CC(C)(N)Cc1c[nH]c2ccc(Br)cc12	150 to 155
O=C(O)c1cn(C2CC2)c2c(F)c(N3CC4CCC3CN4)c(F)cc2c1=O (stereo not drawn)	275 to 280
Cc1cc(-c2cc(C(F)(F)F)n3ncc(-c4nc(-c5ccc(N)nc5)no4)c3n2)ccc1Cl	262
CC(=O)Nc1ccn([C@@H]2CC[C@H](OC(C)=O)[C@@H](OC(C)=O)[C@H]2OC(C)=O)c(=O)n1 (racemic)	226
CCN(CC)c1ccc(S(=O)(=O)NCCCCC(=O)O)cc1	106 to 108
CCOC(=O)c1cn2c(nc1=O)CCC2	59 to 60
N#Cc1ccc(C(O)CCN2CC=C(c3ccc(Cl)cc3)CC2)cc1 (stereo not drawn)	117 to 118
COC(=O)c1cc2sccc2nc1C(=O)OC	121 to 124
CCCCCCCCCCc1c(C(=O)O)sc2c1sc1c3sc(C(=O)O)c(CCCCCCCCCC)c3sc21	316 to 318
COC(=O)CSc1cccc(Br)n1	32 to 34
CCn1ncc2c3noc(-c4ccc(F)cc4)c3cnc21	222 to 223
CC(C)(C)OC(=O)NC(CC(=O)NCCC(=O)OCc1ccccc1)C(=O)NCCC(=O)OCc1ccccc1 (stereo not drawn)	109 to 110

SMILES	melting point [°C]
CC(C)(C)OC(=O)NC(Cc1ccccc1)C(O)CNCC(O)C(Cc1ccccc1)NC(=O)OC1c2ccccc2CC1O (stereo not drawn)	131 to 133
Cc1nccn1-c1cccc(OS(N)(=O)=O)c1	197 to 200
CCCCCCCCCCN1C(=O)C2CC2(c2ccc(N)cc2)C1=O (stereo not drawn)	92 to 94
O=C(O)c1cc2c(Cl)ncnc2s1	> 265
CC(=Cc1ccccc1)c1ccc2c(c1)C(C)(C)CCS2	81 to 83
CS(=O)(=O)Oc1cc([N+](=O)[O-])c(F)cc1Cl	64 to 65.5
Cc1ccc2c(c1)oc1c(C(=O)NN3CCCC3)nn(-c3ccc(Cl)cc3Cl)c12	90 to 92
CC(=O)Nc1cc(C(F)(F)F)no1	108 to 110
N#Cc1ccc(C(Cl)(Cl)Cl)cc1C(Cl)(Cl)Cl	76 to 78
CCOC1OC(COC(C)=O)C(OC2OC(COC(C)=O)C(OC(C)=O)C(OC(C)=O)C2OC(C)=O)C(OC(C)=O)C1OC(C)=O (stereo not drawn)	133 to 135
CCCCCCCCc1ccc(OCC(O)Cn2cccn2)cc1 (stereo not drawn)	88
CS(=O)(=O)SCCCCC(=O)O	69 to 71
CCCc1c(C(=O)CC(C)OC)c2ccc(C(N)=O)cc2n1Cc1ccccc1Cl (stereo not drawn)	155 to 157
COC(=O)COc1ccc(CC(C)NCC(O)c2ccc(O)c(CO)c2)cc1 (stereo not drawn)	60 to 63
O=S(=O)(CCO)Cc1ccc(CS(=O)(=O)CCO)cc1	210 to 212
CC(C#N)(CC#N)c1cccc([N+](=O)[O-])c1 (stereo not drawn)	142 to 143
CC(C)Sc1cc2c(cc1Cl)N=CNS2(=O)=O	231 to 232
Cc1c(C(=O)O)nc2c(=O)[nH]c3cc(C(F)(F)F)c(-n4cccc4)cc3n12	265 to 270
O=C(OCC(Cl)(Cl)Cl)c1ncn2c1CN=C(c1ccccc1)c1cc(Br)ccc1-2	113 to 116
COC(=O)C1CCSc2cc(OC)c(OC)cc2C1=O (stereo not drawn)	132 to 133

The remaining lines, values ahead:

melting point [°C]	SMILES
201 to 203	CC(C)N(Cc1ccc2cc(NC(=O)N3CCC(c4ccc(Cl)cc4)CC3)ccc2n1)C(C)C
240	CCOC(=O)c1c(N2CCN(C(=O)c3cccs3)CC2)c2sccc2n(CC(=O)c2ccccc2)c1=O
104 to 106	Cn1c(=O)c2c(nc(N3CCC(NC(=O)OC(C)(C)C)C3)n2Cc2ccccc2Br)n(C)c1=O (stereo not drawn)
116 to 118	C[C@@H]1CN(C(=O)OC(C)(C)C)Cc2cc3cc(Br)c(F)cc3n21
188 to 189	COCCCNC(=O)c1cc2c(nc(C)n2C)c2c1CCC1(Cc3ccccc3C1)N2
> 250	CCOC(=O)CC[C@H](NC(=O)c1ccc(CCC2CNc3nc(NC(=O)C(C)(C)C)nc(O)c3C2)cc1)C(=O)OCC (stereo partly drawn)
165 to 170	COc1ccc(-c2nc3n(c2-c2ccncc2)CCS3=O)cc1 (stereo not drawn)
140 to 141	CC(C)Cc1ncn(C(C)C(O)(Cc2nc[nH]n2)c2ccc(Cl)cc2)n1 (stereo not drawn)
190 to 191	Cc1ccc(-c2c(CNC(=O)OC(C)(C)C)c(CC(C)C)nc3ccc(-c4nc(C(=O)OC(C)C)cs4)cc23)cc1
87	CCOC(O)(OCC)C(Cc1ccc2ccccc2c1)NC(=O)OC(C)(C)C (stereo not drawn)
75 to 78	O=C1C(=Cc2ccccc2)CCCC1c1ccccc1 (stereo not drawn)
119 to 123	O=c1c2ccccc2ccc2cc(F)ccc12
147 to 148	COC(=O)c1cccc(-c2nnc(-c3ccc(-c4cccc(C)c4)cc3)o2)c1
116 to 118	CCCCCCNC(=O)OCc1ccc(CNC(=O)OC2CCN(C(=O)Oc3ccc(Oc4ccccc4)cc3)CC2)cc1
149 to 153	CC(C)N(CCN1C(=O)/C(=N/NC(N)=O)c2cc(Br)ccc21)C(C)C
78 to 81	O=C(CCCl)N(c1ccccc1)C1CCCc2ccccc21 (stereo not drawn)
237 to 239	COc1ccc(OC)c2c1C[C@@H](O)[C@H](N1CCN(c3ccccc3Cl)CC1)C2 (relative stereo)
235 to 237	COc1ccc(-c2cnc3[nH]c(=O)n(CC4CCCCC4)c3n2)cn1
211 to 212	Oc1cccc(CCc2cc(-c3ccccc3)n(-c3ccccc3)n2)c1
256 to 259	O=C(O)c1ccc(CCc2ccc(NC(=O)C3CSc4ccccc4C3=O)cc2)cc1 (stereo not drawn)
154 to 155	COC(=O)Cc1ccc(C(=C2CC(C)(C)CC(C)(C)C2)c2ccc(O)cc2)cc1
191 to 193	Cc1cnc(CNC(=O)c2sc(N3CCN(Cc4ccc(F)cc4)C3=O)nc2C)cn1
220 to 224	COc1cc(C2CCN(CCO)CC2)ccc1Nc1ncc2ccc(-c3cccc(S(=O)(=O)NC(C)(C)C)c3)n2n1
176	Cn1cnc(S(=O)(=O)Nc2ccc(OCCN3CCN(c4nsc5ccccc45)CC3)cc2)c1
222 to 223	CC(=O)OC(C)(C)C(=O)Nc1c(C(=O)c2cc(C)ccn2)[nH]c2cc(Cl)ccc12
104 to 106	CC(C)(COc1ncc(C(F)(F)F)cc1Cl)C(=O)C(Oc1ccc(F)cc1)n1cncn1 (stereo not drawn)
132 to 145	COc1ccccc1NC(=O)Nc1nc(Nc2ccccc2-c2ccccc2)nc(N(CC(=O)O)Cc2ccc(C)cc2)n1

melting point [°C]	SMILES
160 to 165	CC(CN(C)C)On1c(=O)nc(-c2ccc3c(c2)OCO3)c2cc3c(cc21)OCO3 (stereo not drawn)
141 to 143	CCCc1c(OCc2cccc(C(=O)OC)c2)ccc(C(C)=O)c1O
110 to 112	CCCCOCCOc1ccc(-c2ccc3c(c2)C=C(C(=O)Nc2ccc([C@@H](O)c4ccccn4)cc2)CCN3C=O)cc1
141 to 143	CCc1c(-c2ccc(O)cc2)c2cc(COCCN(C)C)c3cccc1n32
117 to 121	O=C(Cn1c(-c2ccc([N+](=O)[O-])cc2)ncc(NC(=O)OCc2ccccc2)c1=O)NC(Cc1ccccc1)C(=O)C(F)(F)F (stereo not drawn)
92 to 94	COc1ccc2c(c1)CN(CCc1ccc([N+](=O)[O-])cc1)CC2
167 to 169	COc1ccc(-c2cc(C(F)F)nn2-c2ccc(S(N)(=O)=O)c(F)c2)cc1F
65 to 70	CCOC(=O)NN=C(c1ccc(Cl)cc1)c1ccc(CS(C)=O)cc1 (stereo not drawn)
79	CCOC(=O)COc1ccc(C(=O)c2cccs2)c2ccccc12
282	COC(=O)CCCC(=O)Nc1ccc(C(=O)NN=C2C(=O)Nc3ccc(I)cc32)cc1
163 to 165	CC(C)(C)OC(=O)N1CCC(c2ccc(N3C[C@H](COS(C)(=O)=O)OC3=O)cc2F)CC1
202 to 203	COc1c(NC(=O)c2ccc(C)c(-n3cc(C(=O)NCC4CCN(C)CC4)nn3)c2)cc(C(C)(C)C)cc1NS(C)(=O)=O
144 to 146	Cc1cc2c(cc1NC(=O)c1cccc(I)c1C(=O)NC(C)C)OC(F)(F)C2(O)C(F)(F)F (stereo not drawn)
174 to 177	CCn1c2ccccc2c2c3c(nc(C)c21)CC(C)(C)CC3=O
196 to 197	CC(=O)N(C)c1cccc(-c2ccc3nnc(N)n3n2)c1
188 to 190	CCOC(=O)C[C@H]1O[C@H](c2cccc(OC)c2OC)c2cc(Cl)ccc2N(CC(C)(C)CO)C1=O
130	Cc1ccc(S(=O)(=O)N(c2ccc(Cl)cc2C#N)C(C)C)cc1
155 to 156	CS(=O)(=O)c1ccc(-c2cc(CCCC(=O)O)nn2-c2ccc(C(F)(F)F)cc2)cc1
176 to 178	O=S(=O)(CCCCCOc1ccc(C2=C(c3ccccc3)CCCc3cc(O)ccc32)cc1)CCCC(F)(F)C(F)(F)F
225 to 227	COc1ccc(NC(=O)Nc2ccc(Cl)c(Cl)c2)cc1NS(=O)(=O)c1cc(Cl)cc(Cl)c1
184 to 186	OCCNc1ccc2nnn(Cc3ccc4ncccc4c3)c2n1
104 to 105	COC(CNC1=Nc2ccc(Cl)cc2C(c2ccccc2)N1C)OC (stereo not drawn)
205 to 207	O=C(/C=C/c1ccncc1)N[C@H]1c2ccccc2C[C@H]1O
279 to 283	Cc1ccc(-c2cc3cc(C(=O)O)ccc3o2)cc1
105 to 107	O=S(=O)(c1ccc(Cl)cc1)C(c1cc(F)ccc1F)C(O)CCCCO (stereo not drawn)
141 to 143	COc1ccc(N2CC(CN3CCC(O)(c4ccccc4)CC3)OC2=O)cc1 (stereo not drawn)
